Measured values: patent US20240158357A1, “NOVEL QUINAZOLINONES THAT INHIBIT THE FORMATION OF TAU OLIGOMERS AND THEIR METHOD OF USE” (OLIGOMERIX INC., priority 2019, published 2024)
Entries after “also recorded” stand apart in the source; their conditions may differ. Counter-ions that a name gives are not always drawn.

Experiments:
[1] = molecular target: T1, recombinant human tau 4R2N (Homo sapiens (Human), UniProt P10636); assay: Confirmatory Assay (CONFA), SDS-PAGE quantification of tau monomer and oligomers; assay type: biochemical; conditions: tau target 300 nM, 3 hours room temperature, compound 0.098 uM-50 uM
T1 sequence (P10636 other isoform, or with tags, fused parts or gaps): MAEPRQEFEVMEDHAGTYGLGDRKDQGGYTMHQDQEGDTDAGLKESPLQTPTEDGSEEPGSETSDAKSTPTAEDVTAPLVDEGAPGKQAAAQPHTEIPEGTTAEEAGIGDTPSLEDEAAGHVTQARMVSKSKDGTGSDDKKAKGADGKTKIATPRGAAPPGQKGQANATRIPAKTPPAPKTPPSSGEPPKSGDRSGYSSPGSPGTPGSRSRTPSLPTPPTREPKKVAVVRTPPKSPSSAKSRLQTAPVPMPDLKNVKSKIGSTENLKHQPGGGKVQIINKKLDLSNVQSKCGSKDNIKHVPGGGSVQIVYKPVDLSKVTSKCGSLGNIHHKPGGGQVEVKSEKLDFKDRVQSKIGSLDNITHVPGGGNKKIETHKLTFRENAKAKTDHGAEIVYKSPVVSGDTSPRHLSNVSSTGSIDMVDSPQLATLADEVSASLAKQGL
Experimental: (§1) Bacterial recombinant human tau 4R2N (the largest isoform of tau in the central nervous system, 441 amino acids in length, Seq. ID 1) constructs with either 6X-His or StrepII N-terminal epitope tags were purified from bacterial lysate using denaturing conditions to prepare tau in its monomeric form.
CONFA Assay: Confirmatory Assay (CONFA) used as a secondary screen for confirming the mechanism of action of compounds identified as hits using the ALA assay. The assay is performed using a similar procedure as ALA except that it utilizes SDS-PAGE for visualization and quantification of tau monomer and aggregated species (dimer, trimer, tetramer, pentamer, etc.). Only a single construct of tau without epitope tags is necessary, but the assay can use the same target prepared for the ALA assay also.
For the CONFA assay, Tau target (300 nM) was prepared in buffer (Tris-HCl pH 7.4) and was incubated at room temperature for 3 hours with vehicle control (DMSO) and a dose range of a compound of the disclosure (0.098 uM-50 uM). Samples were mixed with an equal volume of 2×SDS sample buffer (4% SDS, 20% glycerol, 0.004% bromphenol blue, 125 mM Tris HCl, pH 7.0) to resolve tau monomer and disulfide-linked oligomers on 4-20% gradient polyacrylamide gels (Biorad) along with positive control (non-oligomerized tau target). The gels were stained with Oriole Fluorescent Gel Stain (BioRad) and imaged using the FluorChem R system (Protein Simple). AlphaView software (Protein Simple) was used for quantification of tau monomer and oligomers.

[2] = molecular target: T1, recombinant human tau 4R2N; assay: AlphaLisa Assay (ALA), primary screen for inhibition of tau oligomer formation; assay type: biochemical; conditions: tau target 300 nM, 4 hours room temperature, compound 0.098 uM-50 uM
Excerpt: as §1
ALA Assay: AlphaLisa Assay (ALA) was used as a primary screen for identifying compounds that inhibit tau oligomer formation. It is a bead based assay that only gives signal when the beads are in close proximity to each other. When the tau monomer (target) is incubated it forms higher order aggregates (dimer, trimer, tetramer, etc) so that when the donor and acceptor beads bind to the epitope tags of tau they are in close proximity and generate signal.
Tau target (equal mixture of each construct at 300 nM) was prepared in buffer (Tris-HCl pH 7.4) and was incubated in 96-well plates at room temperature for 4 hours with vehicle control (DMSO) and a dose range of a compound of the disclosure (0.098 uM-50 uM). AlphaLisa acceptor heads & donor beads with ligands to the epitope tags (Perkin Elmer) were diluted (final 20 ug/mL per bead) in bead buffer (25 mM HEPES pH 7.4, 100 mM NaCl, 0.1% Tween-20), added to the wells and incubated 1 hour at room temperature. The positive control (non-incubated target) & blank (no tau) were prepared and mixed with beads in bead buffer and the plate was read immediately using the EnVision plate reader (Perkin Elmer).

[3] = system: insoluble tau aggregates in the brains of htau mice; assay: htau mouse study, insoluble tau in cortex (mAb DA31); assay type: in vivo
Experimental: (§2) Four groups of htau mice (n=25 per group) were treated from 2.5 to 6.5 months of age with 0, 10, 40 and 100 mg/kg of compound TO-0582 milled into feed. The study was performed independently and blinded. The primary endpoint of the study was reduction of insoluble tau aggregates in the brains of the mice with statistical significance. […] Methods for biochemical analyses of tau used in this study have been previously described (Acker C M et al. Sensitive quantitative assays for tau and phospho-tau in transgenic mouse models. Neurobiol Aging. 2013. 34:338). The results in FIG. 1 show in vivo efficacy of the compound in reducing tau pathology. Levels of insoluble tau in the cortices of htau mice treated with compound TO-0582 (example 21) were determined using the pan-tau monoclonal antibody (mAb) DA31. These values were normalized to total tau in the lysates of the cortex of each mouse. Error bars indicate standard error of the mean. The P values of comparisons of the groups treated with 10, 40 or 100 mg/kg TO-0582 to the control group (white bar, 0 mg/kg) are 0.0503 (horizontal hatch bar, 10 mg/kg), 0.0154 (diagonal hatch bar, 40 mg/kg) and 0.0488 (vertical hatch bar, 100 mg/kg). * indicates P value <0.05.

htau mice = assay: htau mouse study, tolerability; assay type: in vivo; conditions: all doses (10, 40, 100 mg/kg in feed)
Experimental: as §2

| IC50 [1] [µM] | IC50 [2] [µM] | Compound | also measured |
| --- | --- | --- | --- |
| 57 | 17.1 | Cc1ccc(-n2c(-c3cccnc3)nc3ccsc3c2=O)cc1O [Ex. 11, 3-(3-Hydroxy-4-methylphenyl)-2-(pyridin-3-yl)thieno[3,2-d]pyrimidin-4(3H)-one] |  |
|  | 13.6 | COc1ccc(-n2c(-c3ccc(NC(C)=O)cc3)nc3ccsc3c2=O)cn1 [Ex. 13, N-(4-(3,4-Dihydro-3-(6-methoxypyridin-3-yl)-4-oxothieno[3,2-d]pyrimidin-2-yl)phenyl)acetamide] |  |
| 22.3 | 6.25 | COc1ccc(-n2c(-c3cccnc3)nc3ccsc3c2=O)cn1 [Ex. 14, 3-(6-Methoxypyridin-3-yl)-2-(pyridin-3-yl)thieno[3,2-d]pyrimidin-4(3H)-one dihydrochloride] |  |
| 7.6 | 3.72 | O=c1[nH]c(-c2cccnc2)nc2ccsc12 [Ex. 15, 2-(pyridin-3-yl)thieno[3,2-d]pyrimidin-4(3H)-one] |  |
| 1.7 | 4.53 | CCc1ccc(-n2c(-c3ccc(NC(C)=O)cc3)nc3ccsc3c2=O)cc1O [Ex. 16, N-(4-(3-(4-ethyl-3-hydroxyphenyl)-4-oxo-3,4-dihydrothieno[3,2-d]pyrimidin-2-yl)phenyl)acetamide] |  |
|  | 8.05 | CCc1ccc2cc(-n3c(-c4cccnc4)nc4ccccc4c3=O)ccc2c1 [Ex. 19, 3-(2-Ethylnaphthalen-6-yl)-2-(pyridine-3-yl)quinazolin-4(3H)-one] |  |

Second part, the compound before the results:

| Compound | IC50 [1] [µM] | IC50 [2] [µM] | also measured |
| --- | --- | --- | --- |
| O=c1c2ccccc2nc(-c2cccnc2)n1-c1ccc(Cl)c(O)c1 [Ex. 2, 3-(4-Chloro-3-hydroxyphenyl)-2-(pyridin-3-yl)quinazolin-4(3H)-one hydrochloride] | 31.9 | 5.78 |  |
| O=c1c2ccccc2nc(-c2cccnc2)n1CCCCO [Ex. 3, 3-(4-Hydroxybutyl)-2-(pyridin-3-yl)quinazolin-4(3H)-one hydrochloride] | 8.94 | 9.93 |  |
| O=c1c2ccccc2nc(-c2cccnc2)n1-c1cccc(OCc2ccccc2)c1 [Ex. 4, 3-(3-(Benzyloxy)phenyl)-2-(pyridin-3-yl)quinazolin-4(3H)-one hydrochloride] | 3.19 | 7.8 |  |
| O=c1[nH]c(-c2cccnc2)nc2cnccc12 [Ex. 6, 2-(Pyridin-3-yl)pyrido[3,4-d]pyrimidin-4(3H)-one dihydrochloride] | 59.2 |  |  |
| CN1CC(C(=O)Nc2ccc(-c3nc4ccccc4c(=O)n3-c3cccnc3)cc2)C1 [Ex. 7, N-(4-(3,4-Dihydro-4-oxo-3-(pyridin-3-yl)quinazolin-2-yl)phenyl)-1-methylazetidine-3-carboxamide dihydrochloride] | 12.1 | 9.6 |  |
| CN1CC(C(=O)Nc2ccc(-c3nc4ccsc4c(=O)[nH]3)cc2)C1 [Ex. 9, N-(4-(3,4-Dihydro-4-oxothieno[3,2-d]pyrimidin-2-yl)phenyl)-1-methyl azetidine-3-carboxamide hydrochloride] | 62.4 | 6.89 |  |
| O=c1c2sccc2nc(-c2cccnc2)n1-c1cccnc1 [Ex. 10, 2,3-Di(pyridin-3-yl)thieno[3,2-d]pyrimidin-4(3H)-one] |  | 26.3 |  |
| CCc1ccc(-n2c(-c3cccnc3)nc3ccccc3c2=O)cc1F [Ex. 17, 3-(3-Fluoro-4-ethylphenyl)-2-(pyridine-3-yl)quinazolin-4(3H)-one] |  | 24.1 |  |
| CCc1ccc(-n2c(-c3cccnc3)nc3ccccc3c2=O)cc1Br [Ex. 18, 3-(3-Bromo-4-ethylphenyl)-2-(pyridine-3-yl)quinazolin-4(3H)-one] |  | 4.5 |  |
| Cc1ccc(-n2c(-c3cccnc3)nc3ccccc3c2=O)cc1O [Ex. 20, 3-(4-Methyl-3-hydroxyphenyl)-2-(pyridin-3-yl)quinazolin-4(3H)-one hydrochloride] | 4.18 | 1.9 |  |
| O=c1c2ccccc2nc(-c2cccnc2)n1-c1cccc(O)c1 [Ex. 21, 3-(3-Hydroxyphenyl)-2-(pyridin-3-yl)quinazolin-4(3H)-one hydrochloride] | 5.67 | 5.14 | reduction of insoluble tau, statistical significance ([3]; 40 mg/kg and 100 mg/kg doses, male htau mice): achieved with statistical significance; reduction of insoluble tau aggregates in the brains ([3]; htau mice, 10, 40 and 100 mg/kg milled into feed, 2.5 to 6.5 months of age, listed as TO-0582, hydrochloride): reduced insoluble tau at all doses; also recorded: achieved with statistical significance; tolerability over the course of the study (htau mice): well tolerated; toxic effects on weight, behavior or morbidity (htau mice): did not cause toxic effects |
